Results from patent US20250051276A1 (priority 2021, published 2025).

Assays:
[1] = target: human recombinant 5-HT2Cedited receptor (Homo sapiens, UniProt P28335, I156V/I160V/N158S); test: cell-based
[2] = target: 5-HT2Cedited (accession number AAF35842.1) (Homo sapiens, UniProt P28335, I156V/I160V/N158S); test: biochemical; type: binding
Sequence of 5-HT2Cedited (accession number AAF35842.1) (P28335 whole entry I156V/N158S/I160V, looked up): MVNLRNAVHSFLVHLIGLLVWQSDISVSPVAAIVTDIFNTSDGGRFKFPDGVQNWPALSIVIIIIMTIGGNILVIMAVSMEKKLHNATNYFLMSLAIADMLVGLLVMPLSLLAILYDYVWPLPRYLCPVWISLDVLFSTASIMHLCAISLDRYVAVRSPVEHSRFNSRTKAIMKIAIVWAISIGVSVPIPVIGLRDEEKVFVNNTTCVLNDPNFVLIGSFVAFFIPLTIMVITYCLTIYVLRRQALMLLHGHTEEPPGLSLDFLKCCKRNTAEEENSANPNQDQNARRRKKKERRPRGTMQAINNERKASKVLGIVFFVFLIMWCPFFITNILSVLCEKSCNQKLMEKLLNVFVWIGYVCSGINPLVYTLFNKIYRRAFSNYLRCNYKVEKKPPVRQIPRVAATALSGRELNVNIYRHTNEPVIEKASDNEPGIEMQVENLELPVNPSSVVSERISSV

Sequence of human recombinant 5-HT2Cedited receptor (P28335 33-458 I156V/N158S/I160V limits assumed): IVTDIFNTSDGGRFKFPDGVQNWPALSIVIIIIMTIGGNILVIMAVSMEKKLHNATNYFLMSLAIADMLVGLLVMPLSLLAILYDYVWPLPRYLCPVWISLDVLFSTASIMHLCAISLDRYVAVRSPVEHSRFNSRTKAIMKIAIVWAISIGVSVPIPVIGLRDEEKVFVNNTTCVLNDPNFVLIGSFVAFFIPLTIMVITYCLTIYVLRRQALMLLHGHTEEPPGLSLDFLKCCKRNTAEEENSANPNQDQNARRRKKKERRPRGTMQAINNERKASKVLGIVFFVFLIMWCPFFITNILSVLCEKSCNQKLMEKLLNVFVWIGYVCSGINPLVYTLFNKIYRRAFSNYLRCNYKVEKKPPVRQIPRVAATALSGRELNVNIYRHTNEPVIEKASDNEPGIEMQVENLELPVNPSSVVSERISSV

| Structure (SMILES) | EC50 [1] | IC50 [2] |
| --- | --- | --- |
| CCN(CC)[C@H](C)Cn1ccc2cc(OCc3ccccc3)ccc21 [Compound 11, (R)-1-(5-(benzyloxy)-1H-indol-1-yl)-N,N-diethylpropan-2-amine] | > 10 µM | 1 to 10 µM |
| C[C@@H](N)Cn1ccc2cc(OCc3ccc(F)cc3)ccc21 [Compound 5, (R)-1-(5-((4-fluorobenzyl)oxy)-1H-indol-1-yl)propan-2-amine] | 1 to 10 µM | 0.101 to 1 µM |
| C[C@H](Cn1ccc2cc(OCc3ccccc3)ccc21)N(C)C [Compound 3, (R)-1-(5-(benzyloxy)-1H-indol-1-yl)-N,N-dimethylpropan-2-amine] | 1 to 10 µM | 0.101 to 1 µM |
| C[C@H](Cn1ccc2cc(OCc3cccc(F)c3)ccc21)N(C)C [Compound 9, (R)-1-(5-((3-fluorobenzyl)oxy)-1H-indol-1-yl)-N,N-dimethylpropan-2-amine] | > 10 µM | 0.101 to 1 µM |
| C[C@@H](N)Cn1ccc2nc(OCc3ccccc3)ccc21 [Compound 2, (R)-1-(5-(benzyloxy)-1H-pyrrolo[3,2-b]pyridin-1-yl)propan-2-amine] | > 10 µM | > 10 µM |
| C[C@H](Cn1ccc2cc(OCc3ccccc3)ccc21)N1CCCC1 [Compound 12, (R)-5-(benzyloxy)-1-(2-(pyrrolidin-1-yl)propyl)-1H-indole] | > 10 µM | 1 to 10 µM |
| C[C@H](Cn1ccc2cc(OCc3ccc(F)cc3)ccc21)N(C)C [Compound 8, (R)-1-(5-((4-fluorobenzyl)oxy)-1H-indol-1-yl)-N,N-dimethylpropan-2-amine] | > 10 µM | 0.101 to 1 µM |
| CN[C@H](C)Cn1ccc2cc(OCc3ccccc3)ccc21 [Compound 4, (R)-1-(5-(benzyloxy)-1H-indol-1-yl)-N-methylpropan-2-amine] | 1 to 10 µM | 1 to 10 µM |
| C[C@H](Cn1ccc2nc(OCc3ccccc3)ccc21)N(C)C [Compound 1, (R)-1-(5-(benzyloxy)-1H-pyrrolo[3,2-b]pyridin-1-yl)-N,N-dimethylpropan-2-amine] | > 10 µM | 1 to 10 µM |
| C[C@H](Cn1ccc2cc(OCc3ccccc3F)ccc21)N(C)C [Compound 10, (R)-1-(5-((2-fluorobenzyl)oxy)-1H-indol-1-yl)-N,N-dimethylpropan-2-amine] | > 10 µM | 0.101 to 1 µM |
| C[C@@H](N)Cn1ccc2cc(OCc3ccccc3F)ccc21 [Compound 7, (R)-1-(5-((2-fluorobenzyl)oxy)-1H-indol-1-yl)propan-2-amine] | 1 to 10 µM | 1 to 10 µM |
| C[C@@H](N)Cn1ccc2cc(OCc3cccc(F)c3)ccc21 [Compound 6, (R)-1-(5-((3-fluorobenzyl)oxy)-1H-indol-1-yl)propan-2-amine] | 1 to 10 µM | 0.101 to 1 µM |
